For seven compounds, MIC results are on record in US4477443A, “Tylosin derivatives, their preparation and pharmaceutical compositions containing them” (Zaidan Hojin Biselbutsu Kagaku Kenkyu Kai (Microbial …, priority 1981, dated 1984).

Holding throughout (type): cell-based
The test system of one test is B. cereus. Description: antimicrobial activity (MIC), Table II. The following applies: Bacillus cereus; B. cereus; read-out: MIC.
Another test deals with Staph. aureus 226. The experiment in a line: antimicrobial activity (MIC), Table II. Conditions: Staphylococcus aureus; Staph. aureus 226; read-out: MIC.
For test [1], the system named is Staph. epidermidis IID 866. Description: antimicrobial activity (MIC), Table II. Conditions: Staphylococcus epidermidis, IID866.
For another test, the system named is Staph. aureus ATCC 6538P. The experiment in a line: antimicrobial activity (MIC), Table II. Conditions: Staphylococcus aureus, ATCC6538P; Staph. aureus ATCC 6538P; read-out: MIC.
Another test relates to B. subtilis ATCC 6633. Description: antimicrobial activity (MIC), Table II. Conditions: Bacillus subtilis, ATCC6633; B. subtilis ATCC 6633; read-out: MIC.
A further test deals with Staph. aureus KC-11. Description: antimicrobial activity (MIC), Table II. The following applies: Staphylococcus aureus, KC11; Staph. aureus KC-11; read-out: MIC.
A further test deals with Staph. aureus 193. Description: antimicrobial activity (MIC), Table I. The following applies: Staphylococcus aureus; Staph. aureus 193; read-out: MIC.
In another test the test system is Coryn. bovis 1810. The experiment in a line: antimicrobial activity (MIC), Table I. The following applies: Corynebacterium bovis; Coryn. bovis 1810; read-out: MIC.
For another test, the system named is B. subtilis NRRL B-558. The experiment in a line: antimicrobial activity (MIC), Table I. The following applies: Bacillus subtilis, NRRLB558; B. subtilis NRRL B-558; read-out: MIC.
A further test deals with Staph. aureus 209 P. Description: antimicrobial activity (MIC), Table I. Conditions: Staphylococcus aureus; Staph. aureus 209 P; read-out: MIC.
For the next test, the system named is E. coli K-12. Description: antimicrobial activity (MIC), Table I. The following applies: Escherichia coli, K12; E. coli K-12; read-out: MIC.
The subject of another test is Sal. enteritidis 1891. Description: antimicrobial activity (MIC), Table I. The following applies: Salmonella enterica; Sal. enteritidis 1891; read-out: MIC.
In the next test the test system is E. coli NIHJ. The experiment in a line: antimicrobial activity (MIC), Table I. Conditions: Escherichia coli; E. coli NIHJ; read-out: MIC.
Another test relates to Sarcina lutea PCI 1001. Description: antimicrobial activity (MIC), Table I. Conditions: Micrococcus luteus, PCI1001; Sarcina lutea PCI 1001; read-out: MIC.
A further test concerns E. coli K-12 R-5. The experiment in a line: antimicrobial activity (MIC), Table I. The following applies: Escherichia coli, K12R5; E. coli K-12 R-5; read-out: MIC.
The subject of another test is Kleb. pneumoniae PCI 602. The experiment in a line: antimicrobial activity (MIC), Table I. The following applies: Klebsiella pneumoniae, PCI602; Kleb. pneumoniae PCI 602; read-out: MIC.
Test [2] concerns Shigella dysenteriae JS 11910. The experiment in a line: antimicrobial activity (MIC), Table I. Conditions: JS11910.
The next test relates to Staph. aureus MS 9861. The experiment in a line: antimicrobial activity (MIC), Table I. The following applies: Staphylococcus aureus, MS9861; Staph. aureus MS 9861; read-out: MIC.
The next test has as its system E. coli K-12 ML 1410. Description: antimicrobial activity (MIC), Table I. The following applies: Escherichia coli, K12ML1410.
Another test concerns Pro. vulgaris OX-19. Description: antimicrobial activity (MIC), Table I. Conditions: Proteus vulgaris, OX19; Pro. vulgaris OX-19; read-out: MIC.
[3] abbreviates: E. coli K-12 ML 1410, read-out: MIC.

Molecules are shown by their SMILES. Converted amounts (≈) assume the structure as drawn. Where two headings read alike, the source gives them in different places.

A word on the MIC: it is the smallest concentration in the dilution series that meets the test's criterion for growth inhibition.

As to `CCC1OC(=O)CC(O)C(C)C(OC2OC(C)CC(N(C)C)C2O)C(CC=O)CC(C)C(=O)C=CC(C)=CC1CN(CC)C(C)=O` (stereo not drawn) [Example 47, 23-N-acetylethylamino-23,4'-dideoxymycaminosyl tylonolide], the MIC with B. cereus worked out at 0.39 µg/mL (≈ 0.599 µM); with Staph. aureus 226 it was 1.56 µg/mL (≈ 2.4 µM); in test [1], 0.78 µg/mL (≈ 1.2 µM); with Staph. aureus ATCC 6538P, 0.78 µg/mL (≈ 1.2 µM); in the test with B. subtilis ATCC 6633 it was 0.78 µg/mL (≈ 1.2 µM); in the test with Staph. aureus KC-11, 0.78 µg/mL (≈ 1.2 µM).
As to `CCC(=O)N(CC)CC1C=C(C)C=CC(=O)C(C)CC(CC=O)C(OC2OC(C)C(O)C(N(C)C)C2O)C(C)C(O)CC(=O)OC1CC` (stereo not drawn) [Example 42, 23-deoxy-23-N-ethylpropionylaminomycaminosyl tylonolide], the MIC amounted to 0.39 µg/mL (≈ 0.573 µM) in the test on B. cereus; 0.78 µg/mL (≈ 1.15 µM) in the test on Staph. aureus 226; 0.78 µg/mL (≈ 1.15 µM) in test [1]; 0.78 µg/mL (≈ 1.15 µM) with Staph. aureus ATCC 6538P; 0.78 µg/mL (≈ 1.15 µM) in the test with B. subtilis ATCC 6633; 1.56 µg/mL (≈ 2.29 µM) in the test on Staph. aureus KC-11.
On to `CCC1OC(=O)CC(O)C(C)C(OC2OC(C)CC(N(C)C)C2O)C(CC=O)CC(C)C(=O)C=CC(C)=CC1CN1CCCC1` (stereo not drawn) [Example 16, 23,4'-dideoxy-23-pyrrolidinomycaminosyl tylonolide], for which the MIC with Staph. aureus 193 turned out to be 1.56 µg/mL (≈ 2.46 µM); in the test on Coryn. bovis 1810 it was 0.39 µg/mL (≈ 0.614 µM); with B. subtilis NRRL B-558, 0.78 µg/mL (≈ 1.23 µM); in the test on Staph. aureus 209 P, 0.39 µg/mL (≈ 0.614 µM); with E. coli K-12, 3.12 µg/mL (≈ 4.91 µM); in the test with Sal. enteritidis 1891 it was 0.39 µg/mL (≈ 0.614 µM). Further, the MIC with E. coli NIHJ was 1.56 µg/mL (≈ 2.46 µM); with Sarcina lutea PCI 1001, less than 0.2 µg/mL; in the test with E. coli K-12 R-5, 1.56 µg/mL (≈ 2.46 µM); in the test with Kleb. pneumoniae PCI 602, 0.78 µg/mL (≈ 1.23 µM); in [2], less than 0.2 µg/mL; with Staph. aureus MS 9861 it was 3.12 µg/mL (≈ 4.91 µM). Moreover, the MIC against E. coli K-12 ML 1410 came to 3.12 µg/mL (≈ 4.91 µM); in the test with Pro. vulgaris OX-19, 1.56 µg/mL (≈ 2.46 µM).
As for `CCC1OC(=O)CC(O)C(C)C(OC2OC(C)CC(N(C)C)C2O)C(CC=O)CC(C)C(=O)C=CC(C)=CC1CNC(C)C` (stereo not drawn) [Example 21, 23,4'-dideoxy-23-isopropylaminomycaminosyl tylonolide], the MIC in the test on B. cereus was 0.39 µg/mL (≈ 0.626 µM); in the test on Staph. aureus 226, 0.78 µg/mL (≈ 1.25 µM); in test [1] it was 0.78 µg/mL (≈ 1.25 µM); with Staph. aureus ATCC 6538P it was 0.78 µg/mL (≈ 1.25 µM); in the test with B. subtilis ATCC 6633 it was 0.78 µg/mL (≈ 1.25 µM); in the test with Staph. aureus KC-11, 0.78 µg/mL (≈ 1.25 µM).
With `CCC1OC(=O)CC(O)C(C)C(OC2OC(C)CC(N(C)C)C2O)C(CC=O)CC(C)C(=O)C=CC(C)=CC1COC(=O)CN(C)C` (stereo not drawn) [Example 51, 23-O-dimethylaminoacetyl-4'-deoxymycaminosyltylonolide], the MIC in the test on B. cereus stood at 0.39 µg/mL (≈ 0.585 µM); in the test on Staph. aureus 226, 0.78 µg/mL (≈ 1.17 µM); in test [1], 0.39 µg/mL (≈ 0.585 µM); with Staph. aureus ATCC 6538P, 0.78 µg/mL (≈ 1.17 µM); in the test with B. subtilis ATCC 6633, 0.78 µg/mL (≈ 1.17 µM); with Staph. aureus KC-11, 0.78 µg/mL (≈ 1.17 µM).
Regarding `CCC1OC(=O)CC(O)C(C)C(OC2OC(C)C(O)C(N(C)C)C2O)C(CC=O)CC(C)C(=O)C=CC(C)=CC1CN(C)C` (stereo not drawn) [Example 4, 23-deoxy-23-dimethylaminomycaminosyl tylonolide], the MIC in the test with Staph. aureus 193 amounted to 0.39 µg/mL (≈ 0.624 µM); with Coryn. bovis 1810 it was 0.78 µg/mL (≈ 1.25 µM); in the test on B. subtilis NRRL B-558, 0.78 µg/mL (≈ 1.25 µM); in the test on Staph. aureus 209 P it was 0.2 µg/mL (≈ 0.32 µM); in the test on E. coli K-12 it was 1.56 µg/mL (≈ 2.5 µM); with Sal. enteritidis 1891, 1.56 µg/mL (≈ 2.5 µM). Moreover, the MIC was 0.78 µg/mL (≈ 1.25 µM) in the test with E. coli NIHJ; less than 0.2 µg/mL in the test on Sarcina lutea PCI 1001; 1.56 µg/mL (≈ 2.5 µM) in the test on E. coli K-12 R-5; 0.78 µg/mL (≈ 1.25 µM) in the test with Kleb. pneumoniae PCI 602; 0.39 µg/mL (≈ 0.624 µM) in [2]; 1.56 µg/mL (≈ 2.5 µM) in the test with Staph. aureus MS 9861. Also, the MIC in the test with E. coli K-12 ML 1410 (setting [3]) and in the test with Pro. vulgaris OX-19 was 1.56 µg/mL (≈ 2.5 µM) throughout.
Regarding `CCC1OC(=O)CC(O)C(C)C(OC2OC(C)CC(N(C)C)C2O)C(CC=O)CC(C)C(=O)C=CC(C)=CC1CN1CCCCC1` (stereo not drawn) [Example 17, 23,4'-dideoxy-23-piperidinomycaminosyl tylonolide], the MIC with Staph. aureus 193 is 0.78 µg/mL (≈ 1.2 µM); in the test with Coryn. bovis 1810, less than 0.2 µg/mL; with B. subtilis NRRL B-558, 0.39 µg/mL (≈ 0.601 µM); with Staph. aureus 209 P, 0.39 µg/mL (≈ 0.601 µM); with E. coli K-12, 3.12 µg/mL (≈ 4.81 µM); in the test on Sal. enteritidis 1891, 0.39 µg/mL (≈ 0.601 µM). In addition, the minimal inhibitory concentration (MIC) with E. coli NIHJ is 0.78 µg/mL (≈ 1.2 µM); with Sarcina lutea PCI 1001, less than 0.2 µg/mL; with E. coli K-12 R-5, 1.56 µg/mL (≈ 2.4 µM); in the test with Kleb. pneumoniae PCI 602, 1.56 µg/mL (≈ 2.4 µM); in test [2], less than 0.2 µg/mL; with Staph. aureus MS 9861, 1.56 µg/mL (≈ 2.4 µM). In addition, the MIC in the test on E. coli K-12 ML 1410 (setting [3]) and in the test on Pro. vulgaris OX-19 was 0.78 µg/mL (≈ 1.2 µM) each time.
